PMC4403311, “Making water-soluble integral membrane proteins in vivo using an amphipathic protein fusion strategy” (Nature Communications, 2015)
Where “and” joins values, the source holds several entries; their conditions need not be identical. Equal entries are not always repeated. Where two headings read alike, the source gives them in different places.

Columns and labels:
[1] = target: T1, detergent-solubilized EmrE (Escherichia coli, UniProt P23895); test: tryptophan fluorescence quenching titration (excitation […] nm); assay type: binding
T1 construct: full-length EmrE (110 aa), organic-extracted, solubilized in DDM, purified from E. coli BL21(DE3); unfused

[2] = target: the molecule itself; test: SEC; detergent-free fusion proteins after affinity purification; SEC buffer 20 mM Tris pH 7.5, 50 mM NaCl, 1 mM EDTA pH 8.0; column calibrated with Bio-Rad standards; self-association of the fusion

| Molecule | stoichiometry N [2] | further results |
| --- | --- | --- |
| CC[n+]1c(-c2ccccc2)c2cc(N)ccc2c2ccc(N)cc21 [ethidium bromide] | – | Kd ([1]; read-out: Kd): 5.4 ± 0.47 µM |
| c1ccc([P+](c2ccccc2)(c2ccccc2)c2ccccc2)cc1 [tetraphenylphosphonium] | – | Kd ([1]; 20 mM Tris-HCl pH 7.5, 150 mM NaCl, 0.08% w/v DDM, 10 μM protein, room temperature): higher for ApoAI*-solubilized EmrE compared with its detergent-solubilized counterpart |
| ΔspMBP-EmrE-ApoAI* (other) MNPYIYLGGAILAEVIGTTLMKFSEGFTRLWPSVGTIICYCASFWLLAQTLAYIPTGIAYAIWSGVGIVLISLLSWGFFGQRLDLPAIIGMMLICAGVLIINLLSRSTPHLKLLDNWDSVTSTFSKLREQLGPVTQEFWDNLEKETEGLRQEMSKDLEEVKAKVQPYLDDFQKKWQEEMELYRQKVEPLRAELQEGARQKLHELQEKLSPLGEEMRDRARAHVDALRTHLAPYSDELRQRLAARLEALKENGGARLAEYHAKATEHLSTLSEKAKPALEDLRQGLLPVLESFKVSFLSALEEYTKKLNTQ | 2 and 4 | – |
| ΔspMBP-cyt b5-ApoAI* (other) MAEQSDEAVKYYTLEEIQKHNHSKSTWLILHHKVYDLTKFLEEHPGGEEVLREQAGGDATENFEDVGHSTDAREMSKTFIIGELHPDDRPKLNKPPETLITTIDSSSSWWTNWVIPAISAVAVALMYRLYMAEDLKLLDNWDSVTSTFSKLREQLGPVTQEFWDNLEKETEGLRQEMSKDLEEVKAKVQPYLDDFQKKWQEEMELYRQKVEPLRAELQEGARQKLHELQEKLSPLGEEMRDRARAHVDALRTHLAPYSDELRQRLAARLEALKENGGARLAEYHAKATEHLSTLSEKAKPALEDLRQGLLPVLESFKVSFLSALEEYTKKLNTQ | 8 and 4 | – |
